{"source": "patent US20160138077A1", "about": "“MONITORING AND ASSESSING DEACETYLASE ENZYME ACTIVITY” (THE GENERAL HOSPITAL CORPORATION, priority 2013, published 2016)", "type_in_all_cases": "biochemical", "key": {"HDAC8": {"biological_target": "T1, HDAC8 (Homo sapiens, UniProt Q9BY41)", "T1 construct": "purchased Cayman Chemicals", "T1 sequence (Q9BY41 1-377)": "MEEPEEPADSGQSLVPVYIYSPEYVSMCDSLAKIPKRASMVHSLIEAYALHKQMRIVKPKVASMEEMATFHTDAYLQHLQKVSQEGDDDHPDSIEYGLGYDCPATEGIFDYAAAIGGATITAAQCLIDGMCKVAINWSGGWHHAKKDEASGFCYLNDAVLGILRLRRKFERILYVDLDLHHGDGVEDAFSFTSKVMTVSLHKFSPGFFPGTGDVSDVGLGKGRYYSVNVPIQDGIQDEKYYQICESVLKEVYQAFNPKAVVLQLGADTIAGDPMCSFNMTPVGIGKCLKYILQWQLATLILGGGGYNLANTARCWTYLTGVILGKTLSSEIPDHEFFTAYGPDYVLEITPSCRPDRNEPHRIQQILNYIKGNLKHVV", "test": "LCMS characterization of enzymatic deacetylation by HDAC8", "details": "5 μM probe, 12 hours at 37° C.", "description": "(§1) The enzymatic cleavage of HP-1 and HP-2 was analyzed by performing LCMS assays with HeLa nuclear extract (AnaSpec), HeLa whole cell lysate (Santa Cruz Inc.), and the following purified HDAC isoforms: 1, 2, 3, 6 and 8 (HDAC1, 3 and 8 from Cayman Chemicals and HDAC2 and 6 provided by Dr. Stephen Haggarty). Solutions containing (i) vehicle with DMSO in HDAC buffer, (ii) 5 μM probe in HDAC buffer, (iii) 5 μM probe and HDAC enzyme/HeLa nuclear extract/HeLa whole cell lysate in HDAC buffer, or (iv) 5 μM probe and HDAC enzyme/HeLa nuclear extract/HeLa whole cell lysate pre-incubated with 10 μM SAHA (Provided by Dr. Stephen Haggarty) in HDAC buffer were incubated for 12 hours at 37° C. Following incubation, a 20 μL aliquot of supernatant from each sample was analyzed by LCMS. […] For HP-1, the (M+H)^+ ion for the corresponding aldehyde (8, DHP-1) was detected, which formed following reaction of the initial imine deacetylation product with water. […] The peak area for each detected compound was measured to determine the % deacetylation of each probe. All assay samples were analyzed in triplicate. […]\n(§2) LCMS characterization of HDAC enzymatic action on HP-1 and HP-2. […] Following incubation, an aliquot of supernatant from each sample was analyzed by LCMS. […] The peak area for each detected compound was measured to determine the % deacetylation of each probe (full experimental details in Example 1)."}, "HDAC2": {"biological_target": "HDAC2 (Homo sapiens, UniProt Q92769)", "sequence (Q92769 whole entry, species assumed)": "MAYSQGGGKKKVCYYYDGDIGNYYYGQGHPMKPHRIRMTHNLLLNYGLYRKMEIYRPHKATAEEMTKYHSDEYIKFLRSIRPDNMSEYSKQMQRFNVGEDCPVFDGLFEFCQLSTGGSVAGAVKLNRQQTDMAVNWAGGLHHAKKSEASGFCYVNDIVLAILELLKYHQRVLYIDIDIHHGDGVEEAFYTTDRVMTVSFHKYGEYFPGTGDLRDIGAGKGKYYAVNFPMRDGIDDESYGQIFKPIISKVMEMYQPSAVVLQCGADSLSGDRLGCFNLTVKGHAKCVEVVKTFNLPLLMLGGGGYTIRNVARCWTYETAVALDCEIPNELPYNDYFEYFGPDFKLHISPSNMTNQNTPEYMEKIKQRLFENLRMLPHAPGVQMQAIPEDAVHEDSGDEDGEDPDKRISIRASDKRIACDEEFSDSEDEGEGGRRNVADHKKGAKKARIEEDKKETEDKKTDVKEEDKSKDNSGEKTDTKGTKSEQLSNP", "test": "LCMS characterization of enzymatic deacetylation by HDAC2", "details": "5 μM probe, 12 hours at 37° C.", "description": "as §1, §2"}, "HDAC6": {"biological_target": "T2, HDAC6 (Homo sapiens, UniProt Q9UBN7)", "T2 sequence (Q9UBN7 1-1215)": "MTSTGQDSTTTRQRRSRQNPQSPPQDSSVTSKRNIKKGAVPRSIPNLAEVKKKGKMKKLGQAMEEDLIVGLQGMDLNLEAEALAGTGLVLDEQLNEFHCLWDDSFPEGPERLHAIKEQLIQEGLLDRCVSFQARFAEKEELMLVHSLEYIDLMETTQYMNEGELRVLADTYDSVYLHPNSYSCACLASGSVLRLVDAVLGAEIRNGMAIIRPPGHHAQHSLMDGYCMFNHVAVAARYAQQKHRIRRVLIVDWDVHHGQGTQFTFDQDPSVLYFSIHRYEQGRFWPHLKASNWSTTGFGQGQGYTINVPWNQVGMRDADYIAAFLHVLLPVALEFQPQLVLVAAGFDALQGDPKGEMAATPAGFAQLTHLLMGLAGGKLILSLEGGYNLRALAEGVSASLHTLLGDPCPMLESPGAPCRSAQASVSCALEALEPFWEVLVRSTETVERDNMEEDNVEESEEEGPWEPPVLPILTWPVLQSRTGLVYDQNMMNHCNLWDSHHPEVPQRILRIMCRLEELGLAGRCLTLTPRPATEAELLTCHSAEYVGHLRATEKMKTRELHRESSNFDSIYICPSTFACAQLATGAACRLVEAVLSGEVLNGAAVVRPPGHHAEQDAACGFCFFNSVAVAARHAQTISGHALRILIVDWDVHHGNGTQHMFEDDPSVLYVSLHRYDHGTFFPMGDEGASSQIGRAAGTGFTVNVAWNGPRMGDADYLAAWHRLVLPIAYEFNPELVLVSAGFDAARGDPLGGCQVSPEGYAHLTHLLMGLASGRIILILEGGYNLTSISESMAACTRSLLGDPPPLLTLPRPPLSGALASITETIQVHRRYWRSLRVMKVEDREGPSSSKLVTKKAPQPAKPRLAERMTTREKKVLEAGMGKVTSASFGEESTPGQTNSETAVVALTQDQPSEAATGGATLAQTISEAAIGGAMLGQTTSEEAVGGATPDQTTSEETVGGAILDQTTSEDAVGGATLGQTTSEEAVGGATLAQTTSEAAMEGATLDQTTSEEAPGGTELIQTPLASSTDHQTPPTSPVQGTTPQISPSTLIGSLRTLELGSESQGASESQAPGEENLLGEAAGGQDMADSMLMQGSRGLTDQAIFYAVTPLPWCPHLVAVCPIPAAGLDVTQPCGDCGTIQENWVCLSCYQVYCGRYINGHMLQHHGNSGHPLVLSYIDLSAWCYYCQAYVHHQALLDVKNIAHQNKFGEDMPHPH", "test": "Caliper microfluidic endpoint IC50 assay", "description": "HP-1 and HP-2 IC50 values for HDAC1 were determined using the Trypsin-coupled assay as well as the Caliper endpoint assay. HP-1 and HP-2 IC50 values for HDAC2, HDAC3, HDAC6 and HDAC8 were determined with the Caliper endpoint assay.\nThe Caliper microfluidic assay was performed at the Broad Institute exactly as previously described.^5\nIC50 measurements. HP-1 and HP-2 IC50 values for HDAC1 were determined using the Trypsin-coupled assay as well as the Caliper endpoint assay. HP-1 and HP-2 IC50 values for HDAC2, HDAC3, HDAC6 and HDAC8 were determined with the Caliper endpoint assay (full experimental details in Example 1)."}}, "note": "pIC50: −log10 of the molar value."}
{"smiles": "CC(=O)NC=CCCCCNC(=O)CCCCCNc1ccc([N+](=O)[O-])c2nonc12", "note": "[HP-1]", "values": [{"measurement": "% HP-1 to DHP-1", "setting": "HDAC8; HDAC8, +SAHA (10 μM)", "value": 0, "unit": "%"}, {"measurement": "% HP-1 to DHP-1", "setting": "HDAC8; HDAC8, −SAHA", "value": 0, "unit": "%"}, {"measurement": "% HP-1 to DHP-1", "setting": "HDAC2; HDAC2, +SAHA (10 μM)", "value": 0, "unit": "%"}, {"measurement": "% HP-1 to DHP-1", "setting": "HDAC2; HDAC2, −SAHA", "value": 0, "unit": "%"}, {"measurement": "pIC50", "setting": "HDAC6; HDAC6, Caliper endpoint assay", "value": 4.92}, {"measurement": "binding to HDAC6 (in words)", "setting": "HDAC6; competitive inhibition with a peptide substrate", "value": "bind"}]}
